Experimental data published in publication PMC3038857, “Using Nuclear Receptor Activity to Stratify Hepatocarcinogens” (PLoS ONE, 2011).
Read-outs that look alike come from different tables or passages of the source.

Columns and labels:
[1] = tested on: ABCB1; assay: CLZD_ABCB1: Change in expression of ABCB1 (primary human hepatocytes); type: cell-based; conditions: 24 hr
In short: (§1)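 Read-out: mRNA change by multiplexed quantitative nuclease protection assay. Primary human hepatocytes; 5 concentrations, 0.004-40 µM; exposures 6, 24, 48 hr.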

[2] = tested on: ABCB11; assay: CLZD_ABCB11: Change in expression of ABCB11 (primary human hepatocytes); type: cell-based; conditions: 24 hr
Description: This is a collection of multiplexed gene expression assays focused on Phase I and II xenobiotic metabolizing enzymes and transporters. Human primary cell cultures were treated with chemicals at 5 concentrations (0.004-40 [drawing 42] M) for 6, 24 and 48 hr. Concentration- and time-response profiles of chemicals were measured by the expression of key nuclear receptor target genes, activities of CYP1A enzymes (EROD), and cell morphology. Fourteen gene targets were monitored by quantitative nuclease protection assay including: six representative cytochrome P-450 genes, four hepatic transporters, three Phase II conjugating enzymes, and one endogenous metabolism gene involved in cholesterol synthesis. The target genes associated with nuclear receptor pathways are as follows: [drawing 43] and [drawing 44] with [drawing 45]; [drawing 46] , [drawing 47] , [drawing 48] , [drawing 49] , [drawing 50] and [drawing 51] with [drawing 52]; [drawing 53] , [drawing 54] , [drawing 55] and [drawing 56] with [drawing 57]; [drawing 58] with [drawing 59]; and [drawing 60] with [drawing 61] . Assays were run in primary human hepatocyte cultures by CellzDirect Invitrogen Inc. (Durham, NC), in collaboration with EPA.
Multiplexed Gene Expression in Human Primary Hepatocytes: This is a collection of multiplexed gene expression assays focused on Phase I and II metabolic enzymes and transporters. […] Fourteen gene targets were monitored by quantitative nuclease protection assay: six representative cytochrome P450 genes, four hepatic transporters, three Phase II conjugating enzymes, and one endogenous metabolism gene involved in cholesterol synthesis. Cells were exposed at 5 concentrations (0.004-40 µM) for 6, 24 or 48 hr. Gene targets are sentinels for five nuclear receptor signaling pathways: AhR, CAR, PXR, FXR, and PPARα. All gene are associated with nuclear receptor pathways: CYP1A1 and CYP1A2 with AHR; ABCB1, ABCG2, CYP2B6, CYP2C9, CYP2C19 and UGT1A1 with CAR; CYP3A4, GSTA2, SLCO1B1 and SULT2A1 with PXR; HMGCS2 with PPARA; and ABCB11 with FXR. […] Detailed description of the methods, data and analysis methods for this dataset will be presented in a separate publication.

[3] = tested on: CYP1A1; assay: CLZD_CYP1A1: Change in expression of CYP1A1 (primary human hepatocytes); type: cell-based; conditions: 24 hr
In short: as §1

[4] = tested on: CYP2B6; assay: CLZD_CYP2B6: Change in expression of CYP2B6 (primary human hepatocytes); type: cell-based; conditions: 24 hr
In short: as §1

[5] = molecular target: T1, PXR Human (NR1I2) (Homo sapiens, UniProt O75469); assay: NCGC_PXR_Agonist_human: GAL4 BLAM Reporter gene assay: PXR Human; type: cell-based; conditions: agonist mode
T1 sequence (O75469 146-434 limits assumed): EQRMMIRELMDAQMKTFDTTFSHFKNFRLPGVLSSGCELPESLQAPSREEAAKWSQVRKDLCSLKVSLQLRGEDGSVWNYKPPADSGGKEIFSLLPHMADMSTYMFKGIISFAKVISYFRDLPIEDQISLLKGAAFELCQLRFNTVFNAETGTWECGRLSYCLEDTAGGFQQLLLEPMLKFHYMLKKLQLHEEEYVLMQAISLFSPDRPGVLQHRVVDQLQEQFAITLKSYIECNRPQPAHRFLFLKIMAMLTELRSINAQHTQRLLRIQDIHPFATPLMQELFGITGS
In short: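 Cell-based GAL4 beta-lactamase reporter assays run at NIH Chemical Genomics Center as part of Tox21. Curve fits required R^2 ≥0.5; values where only the highest concentration exceeded 50% activity were excluded.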

[6] = tested on: Rat Liver; conditions: ref ToxRefDB, cited from earlier work
[7] = tested on: Rat Liver; conditions: ref ToxRefDB, cited from earlier work; remark: listed apart in the source
[8] = tested on: Rat Liver; conditions: ref ToxRefDB, cited from earlier work; remark: listed apart in the source
[9] = molecular target: T2, CAR (NR1I3) (Homo sapiens, UniProt Q14994); assay: ATG_PBREM_CIS: Factorial reporter gene assay (HepG2); type: cell-based; design: endogenous in cells; host or cells: HepG2; conditions: HepG2 reporter
T2 sequence (Q14994 1-352): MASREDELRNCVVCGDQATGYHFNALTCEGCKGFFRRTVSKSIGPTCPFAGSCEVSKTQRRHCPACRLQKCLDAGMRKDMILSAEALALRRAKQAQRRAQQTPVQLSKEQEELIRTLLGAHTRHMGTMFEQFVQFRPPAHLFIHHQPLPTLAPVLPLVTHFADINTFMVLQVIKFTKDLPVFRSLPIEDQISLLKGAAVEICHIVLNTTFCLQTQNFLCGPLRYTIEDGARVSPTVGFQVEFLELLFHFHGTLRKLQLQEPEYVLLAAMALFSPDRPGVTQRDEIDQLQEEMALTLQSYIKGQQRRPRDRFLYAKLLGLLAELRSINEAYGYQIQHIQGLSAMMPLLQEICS
Description: A multiple reporter transcription unit (MRTU) library consisting of 48 transcription factor binding sites was transfected into the HepG2 human liver hepatoma cell line. In addition to the cis-acting reporter genes (CIS), a modification of the approach was used to generate a trans-system (TRANS) with a mammalian one-hybrid assay consisting of an additional 25 MRTU library reporting the activity of nuclear receptor super-family members. […] These assays were performed by Attagene Inc. (Morrisville NC) under contract to EPA.
In addition to the cis-acting reporter genes (CIS), a modification of the approach was used to generate a trans-system (TRANS) with a mammalian one-hybrid assay consisting of an additional 25 MRTU library reporting the activity of nuclear receptor super-family members. […] Chemicals were then tested in the CIS and TRANS assays at seven concentrations starting at the MTC and followed by three-fold serial dilutions. These assays were performed by Attagene Inc. (Morrisville NC) under contract to EPA. Detailed description of the methods, data and analysis methods for this dataset will be presented in a separate publication.

[10] = molecular target: T3, PPARG (peroxisome proliferator-activated receptor gamma) (Homo sapiens, UniProt P37231); assay: ATG_PPARg_TRANS: Factorial reporter gene assay (HepG2); type: cell-based; conditions: HepG2 reporter
T3 construct: expressed in transfected cells; host or cells: HepG2
T3 sequence (P37231 1-505): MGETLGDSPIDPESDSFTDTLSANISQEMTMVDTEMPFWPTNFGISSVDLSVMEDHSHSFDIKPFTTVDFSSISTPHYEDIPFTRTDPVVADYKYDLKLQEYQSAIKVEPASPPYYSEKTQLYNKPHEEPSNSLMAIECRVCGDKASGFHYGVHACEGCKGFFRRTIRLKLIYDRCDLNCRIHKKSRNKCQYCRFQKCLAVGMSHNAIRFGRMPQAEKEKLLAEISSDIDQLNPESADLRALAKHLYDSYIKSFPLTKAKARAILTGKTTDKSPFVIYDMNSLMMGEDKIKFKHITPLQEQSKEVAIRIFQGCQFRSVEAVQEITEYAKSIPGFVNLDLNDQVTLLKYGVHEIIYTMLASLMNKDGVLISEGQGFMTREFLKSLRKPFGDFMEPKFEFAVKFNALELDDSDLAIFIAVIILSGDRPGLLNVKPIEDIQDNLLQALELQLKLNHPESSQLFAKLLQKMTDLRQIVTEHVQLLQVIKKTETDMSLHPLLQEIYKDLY
In short: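 Mammalian one-hybrid trans reporters (25 MRTUs) measured ERRg, FXR and PPARg; PXRE used cis reporters from a 48-site MRTU library. Both were run in HepG2. Dosing: seven concentrations, MTC as the highest, three-fold dilution series.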

[11] = tested on: CYP3A4; assay: CLZD_CYP3A4: Change in expression of CYP3A4 (primary human hepatocytes); type: cell-based; conditions: 24 hr
In short: as §1

[12] = molecular target: T4, PXR (NR1I2) (Homo sapiens, UniProt O75469); assay: NVS_NR_hPXR: Human PXR Fluormone PXR (SXR) green (cell-free HTS); type: binding
T4 sequence (O75469 1-434): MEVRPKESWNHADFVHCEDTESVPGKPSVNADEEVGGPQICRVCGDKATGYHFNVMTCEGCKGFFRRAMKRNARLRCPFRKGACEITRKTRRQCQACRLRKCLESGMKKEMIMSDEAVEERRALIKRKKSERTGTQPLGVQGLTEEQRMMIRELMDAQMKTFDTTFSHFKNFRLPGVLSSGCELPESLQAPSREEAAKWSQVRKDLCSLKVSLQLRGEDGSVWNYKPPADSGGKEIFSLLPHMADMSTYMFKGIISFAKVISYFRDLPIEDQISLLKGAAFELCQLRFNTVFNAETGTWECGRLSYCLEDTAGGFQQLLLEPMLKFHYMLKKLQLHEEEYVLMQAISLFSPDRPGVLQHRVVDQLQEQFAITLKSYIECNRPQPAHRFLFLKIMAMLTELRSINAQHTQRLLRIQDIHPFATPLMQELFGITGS
In short: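 Responses were normalized to same-plate solvent controls as percent of neutral control. AC50 values came from Hill-equation fits of concentration-response curves.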

[13] = tested on: Mouse Liver; conditions: chronic study, mouse liver; ref ToxRefDB; cited from earlier work
[14] = tested on: Mouse Liver; conditions: chronic study, mouse liver; ref ToxRefDB; cited from earlier work; remark: listed apart in the source
[15] = tested on: Mouse Liver; conditions: chronic study, mouse liver; ref ToxRefDB; cited from earlier work; remark: listed apart in the source
[16] = molecular target: T5, PPARg (PPARG) (Homo sapiens, UniProt P37231); assay: NCGC_PPARg_Agonist: GAL4 BLAM Reporter gene assay: PPARg; type: cell-based; design: expressed in transfected cells; host or cells: HEK293; conditions: agonist mode
T5 sequence (P37231 1-505): T3 sequence (P37231 1-505)
Description: (§2) These assays measure binding constants and enzyme inhibition values for nuclear receptors. The targets include [drawing 67] , [drawing 68] , [drawing 69] , [drawing 70] , [drawing 71] , [drawing 72] , [drawing 73] , [drawing 74] , [drawing 75] and [drawing 76] . Each of the nuclear receptor targets was measured in agonist mode. Assays were run at the NIH Chemical Genomics Center (Rockville, MD).
(§3) Cell-based HTS Assays: These assays measuring binding constants and enzyme inhibition values for nuclear receptors. The targets include AR, ER, FXR, LXR, PPARα, PPARδ, PPARγ, RXRα, RXRβ and PXR. Each of the nuclear receptor targets was measured in both agonist and antagonist mode, but the antagonist data is still undergoing analysis due to possible interference between cytotoxicity and assay activity, so antagonist mode data were not used in the present analysis. Assays were run at the NIH Chemical Genomics Center (Rockville, MD) as part of the Tox21 collaboration. […] The R^2 was required to be ≥0.5. Values where only the highest concentration exceeded 50% activity were excluded to eliminate weak or false positives. Detailed description of the methods, data and analysis methods for this dataset will be presented in a separate publication.

[17] = molecular target: T6, RXRa (RXRA) (Homo sapiens, UniProt P19793); assay: NCGC_RXRa_Agonist: GAL4 BLAM Reporter gene assay: RXRa; type: cell-based; conditions: agonist mode
T6 sequence (P19793 227-462 limits assumed): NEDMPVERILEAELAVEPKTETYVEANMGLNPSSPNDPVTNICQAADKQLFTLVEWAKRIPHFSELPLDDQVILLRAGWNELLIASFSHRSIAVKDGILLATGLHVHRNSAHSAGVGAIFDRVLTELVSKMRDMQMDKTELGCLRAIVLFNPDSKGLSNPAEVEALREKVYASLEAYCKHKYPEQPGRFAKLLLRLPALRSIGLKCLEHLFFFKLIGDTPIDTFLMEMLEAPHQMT
Description: as §2, §3

## C=C(C)[C@H]1Cc2c(ccc3c2O[C@@H]2COc4cc(OC)c(OC)cc4[C@@H]2C3=O)O1 [r282]
[1]
  CLZD_ABCB1_24: 4.54
[2]
  CLZD_ABCB11_24: 5.217
[3]
  CLZD_CYP1A1_24: 5.398
[4]
  CLZD_CYP2B6_24: 5.235
[5]
  NCGC_PXR_Agonist_human: 4.77
[6]; chronic study, rat liver
  CHR_Rat_Liver_1_AnyLesion: 0
[7]; chronic study, rat liver
  CHR_Rat_Liver_2_PreneoplasticLesion: 0
[8]; chronic study, rat liver
  CHR_Rat_Liver_3_NeoplasticLesion: 0
[9]
  ATG_PBREM_CIS: 6.638

## CCC(C)(C)C(=O)OC1=C(c2cc(Cl)cc(Cl)c2)C(=O)OC12CCCCC2 [r285]
[10]
  ATG_PPARg_TRANS: 5.444
[11]
  CLZD_CYP3A4_24: 6.36
[12]
  NVS_NR_hPXR: 6.367
[13]
  CHR_Mouse_Liver_1_AnyLesion: 6
[14]
  CHR_Mouse_Liver_2_PreneoplasticLesion: 6
[15]
  CHR_Mouse_Liver_3_NeoplasticLesion: 6
[6]; chronic study, rat liver
  CHR_Rat_Liver_1_AnyLesion: 6
[7]; chronic study, rat liver
  CHR_Rat_Liver_2_PreneoplasticLesion: 6
[8]; chronic study, rat liver
  CHR_Rat_Liver_3_NeoplasticLesion: 0
[16]
  NCGC_PPARg_Agonist: 5.556

## N#CSCSc1nc2ccccc2s1 [r289]
[5]
  NCGC_PXR_Agonist_human: 4.409
[12]
  NVS_NR_hPXR: 6.169
[16]
  NCGC_PPARg_Agonist: 4.706

## CS(=O)(=O)c1ccc(C(=O)C2C(=O)CCCC2=O)c([N+](=O)[O-])c1 [row 195]
[17]
  NCGC_RXRa_Agonist: 4.471
[6]; chronic rat study, liver
  CHR_Rat_Liver_1_AnyLesion: 6
[7]; chronic rat study, liver
  CHR_Rat_Liver_2_PreneoplasticLesion: 0
[8]; chronic rat study, liver
  CHR_Rat_Liver_3_NeoplasticLesion: 0
